In ChEMBL document CHEMBL1201862, “PubChem BioAssay data set” (2004):
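Interpolation was linear, between the two tested concentrations surrounding the appropriate level; five concentrations were tested over 48 hours in 96-well plates. Abbreviation: GI50, concentration required for 50% inhibition of growth.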 Activity calls are given as the source filed them. Rule as the data show it: active = GI50 up to about 1.1 µM and inactive = higher.

How the values were obtained:
Experiment in all cases: DTP human tumour cell line panel, 48 h
A549 = system: A549
ACHN = system: ACHN
COLO 205 = system: COLO 205
HCT-116 = system: HCT-116
HOP-62 = system: HOP-62
Hs-578T = system: Hs-578T
IGROV-1 = system: IGROV-1
LOX IMVI = system: LOX IMVI
OVCAR-8 = system: OVCAR-8
RPMI-8226 = system: RPMI-8226
SK-MEL-2 = system: SK-MEL-2
SK-MEL-5 = system: SK-MEL-5
SK-OV-3 = system: SK-OV-3
SR = system: SR
SW-620 = system: SW-620
T47D = system: T47D
TK-10 = system: TK-10
U-251 = system: U-251
UACC-62 = system: UACC-62
UO-31 = system: UO-31

| SMILES | GI50 (A549) | GI50 (ACHN) | GI50 (COLO 205) | GI50 (HCT-116) | GI50 (HOP-62) | GI50 (Hs-578T) | GI50 (IGROV-1) | GI50 (LOX IMVI) | GI50 (OVCAR-8) | GI50 (RPMI-8226) | GI50 (SK-MEL-2) | GI50 (SK-MEL-5) | GI50 (SK-OV-3) | GI50 (SR) | GI50 (SW-620) | GI50 (T47D) | GI50 (TK-10) | GI50 (U-251) | GI50 (UACC-62) | GI50 (UO-31) |
| --- | --- | --- | --- | --- | --- | --- | --- | --- | --- | --- | --- | --- | --- | --- | --- | --- | --- | --- | --- | --- |
| CN(C)CCNc1ccc2c(=O)n(CCN(C)C)c(=O)n3c4ccc(O)cc4c(=O)c1c23 | < 0.01 µM (active) | < 0.01 µM (active) | 0.0327 µM (active) | < 0.01 µM (active) | < 0.01 µM (active) | 0.161 µM (active) | 0.0144 µM (active) | < 0.0105 µM (active) | < 0.01 µM (active) | < 0.0104 µM (active) | 0.226 µM (active) | < 0.0115 µM (active) | < 0.022 µM (active) | < 0.01 µM (active) | < 0.01 µM (active) | < 0.0165 µM (active) | 0.197 µM (active) | < 0.0109 µM (active) | < 0.0128 µM (active) | < 0.0148 µM (active) |
| C#C[C@@]1(O)CCCC2=CC3(CC[C@]21C)SCCS3 | > 100 µM (inactive) | > 100 µM (inactive) | > 100 µM (inactive) | > 100 µM (inactive) | > 100 µM (inactive) | > 100 µM (inactive) | > 100 µM (inactive) | > 100 µM (inactive) | > 100 µM (inactive) | > 100 µM (inactive) | > 100 µM (inactive) | > 100 µM (inactive) | > 100 µM (inactive) | > 100 µM (inactive) | > 100 µM (inactive) | > 100 µM (inactive) | > 100 µM (inactive) | > 100 µM (inactive) | > 100 µM (inactive) | > 100 µM (inactive) |
| CNC1C(O)CC(OC2C/C=C(\C)C/C(C)=C/C=C/CCC(C)CNC(=O)/C=C/C=C/C2C)OC1C (stereo not given) | 0.504 µM (active) | 1.5 µM (inactive) | 0.202 µM (active) | 0.278 µM (active) | 1.03 µM (active) | 0.502 µM (active) | 1.29 µM (inactive) | 0.103 µM (active) | 0.324 µM (active) | 0.22 µM (active) | 1.19 µM (inactive) | 0.811 µM (active) | 1.15 µM (inactive) | 0.24 µM (active) | 0.12 µM (active) | 0.783 µM (active) | 1.1 µM (active) | 0.521 µM (active) | 0.44 µM (active) | 2.85 µM (inactive) |
| O=[N+]([O-])c1ccc(N2CCC(CCCC3CCN(c4ccc([N+](=O)[O-])cc4[N+](=O)[O-])CC3)CC2)c([N+](=O)[O-])c1 | 16.4 µM (inactive) | 16.1 µM (inactive) | 14.2 µM (inactive) | 26.5 µM (inactive) | 15.5 µM (inactive) | 34.8 µM (inactive) | 11.1 µM (inactive) | 14.8 µM (inactive) | 16.1 µM (inactive) | 13.4 µM (inactive) | 16.9 µM (inactive) | 15.1 µM (inactive) | 18.5 µM (inactive) | 27 µM (inactive) | 19.9 µM (inactive) | 5.64 µM (inactive) | 16.9 µM (inactive) | 14.8 µM (inactive) | 11.9 µM (inactive) | 11.9 µM (inactive) |
| CC(CCCC1SCC2NC(=O)NC21)C(=O)O (stereo not given) | > 100 µM (inactive) | > 100 µM (inactive) | > 100 µM (inactive) | > 100 µM (inactive) | > 100 µM (inactive) | > 100 µM (inactive) | > 100 µM (inactive) | > 100 µM (inactive) | > 100 µM (inactive) | > 100 µM (inactive) | > 100 µM (inactive) | > 100 µM (inactive) | > 100 µM (inactive) | > 100 µM (inactive) | > 100 µM (inactive) | > 100 µM (inactive) | > 100 µM (inactive) | > 100 µM (inactive) | > 100 µM (inactive) | > 100 µM (inactive) |
| CCOC(=O)/C=C(/C(=O)OCC)n1ccc(=O)n(Cc2cn(CCCCOC(C)=O)nn2)c1=O | > 100 µM (inactive) | 40.3 µM (inactive) | 31.8 µM (inactive) | > 100 µM (inactive) | > 100 µM (inactive) | > 100 µM (inactive) | > 100 µM (inactive) | > 100 µM (inactive) | > 100 µM (inactive) | 89.3 µM (inactive) | > 100 µM (inactive) | > 100 µM (inactive) | > 100 µM (inactive) | > 100 µM (inactive) | 32.7 µM (inactive) | > 100 µM (inactive) | 58.2 µM (inactive) | > 100 µM (inactive) | > 100 µM (inactive) | > 100 µM (inactive) |
| OCCN=C1c2ccccc2C2C(c3ccccc31)C1c3ccccc3C(=NCCO)c3ccccc3C21 (stereo not given) | 20.6 µM (inactive) | 23.6 µM (inactive) | 15.6 µM (inactive) | 15.5 µM (inactive) | 18.1 µM (inactive) | 12.6 µM (inactive) | 15.5 µM (inactive) | 22 µM (inactive) | 26.9 µM (inactive) | 13.6 µM (inactive) | 16.4 µM (inactive) | 16.8 µM (inactive) | 22.2 µM (inactive) | 9.48 µM (inactive) | 26.1 µM (inactive) | 21.6 µM (inactive) | 26.4 µM (inactive) | 20.2 µM (inactive) | 15.3 µM (inactive) | 12.5 µM (inactive) |
| N#CC(C#N)=C1SC(=N\c2ccccc2)/C(=N/c2ccccc2)N1c1ccccc1 | 58.9 µM (inactive) | 20 µM (inactive) | 10.1 µM (inactive) | 14.4 µM (inactive) | 27.7 µM (inactive) | 25.3 µM (inactive) | 13.9 µM (inactive) | 10.7 µM (inactive) | 22.6 µM (inactive) | 5.75 µM (inactive) | 5.19 µM (inactive) | 14.3 µM (inactive) | > 100 µM (inactive) | 3.03 µM (inactive) | 3.28 µM (inactive) | 5.38 µM (inactive) | 44.1 µM (inactive) | 15.6 µM (inactive) | 5.79 µM (inactive) | 12.7 µM (inactive) |
| N#Cc1c(-c2ccc(Cl)cc2Cl)nc2[nH]nc(S)n2c1=O | > 100 µM (inactive) | > 100 µM (inactive) | > 100 µM (inactive) | > 100 µM (inactive) | > 100 µM (inactive) | > 100 µM (inactive) | > 100 µM (inactive) | > 100 µM (inactive) | > 100 µM (inactive) | > 100 µM (inactive) | > 100 µM (inactive) | > 100 µM (inactive) | > 100 µM (inactive) | > 100 µM (inactive) | > 100 µM (inactive) | > 100 µM (inactive) | > 100 µM (inactive) | > 100 µM (inactive) | > 100 µM (inactive) | > 100 µM (inactive) |
| CCN(CC)C(=S)/N=C(\SC(=S)N(CC)CC)c1ccccc1 | 20.8 µM (inactive) | > 68.2 µM (inactive) | 0.522 µM (active) | 14.6 µM (inactive) | 29.9 µM (inactive) | 35.4 µM (inactive) | 21.4 µM (inactive) | 15.1 µM (inactive) | 56 µM (inactive) | 2.48 µM (inactive) | 30.7 µM (inactive) | 0.569 µM (active) | 47.3 µM (inactive) | 0.391 µM (active) | > 66.8 µM (inactive) | 25.2 µM (inactive) | > 89.5 µM (inactive) | 58.5 µM (inactive) | 39.6 µM (inactive) | 27 µM (inactive) |
| CNn1c(-c2ccc(C)cc2)n[nH]c1=O | > 100 µM (inactive) | > 100 µM (inactive) | > 100 µM (inactive) | > 100 µM (inactive) | > 100 µM (inactive) | > 100 µM (inactive) | > 100 µM (inactive) | > 100 µM (inactive) | > 100 µM (inactive) | > 100 µM (inactive) | > 100 µM (inactive) | > 100 µM (inactive) | > 100 µM (inactive) | 68.5 µM (inactive) | > 100 µM (inactive) | > 100 µM (inactive) | > 100 µM (inactive) | > 100 µM (inactive) | > 100 µM (inactive) | > 100 µM (inactive) |
| O=[N+]([O-])c1ccc(N/N=C/c2ccc(OCCCCCCCCCCCO)cc2)c([N+](=O)[O-])c1 | 5.96 µM (inactive) | 9.2 µM (inactive) | 2.01 µM (inactive) | 17.4 µM (inactive) | 4.39 µM (inactive) | 1.32 µM (inactive) | 6.05 µM (inactive) | 7.64 µM (inactive) | 2.71 µM (inactive) | 30.9 µM (inactive) | 10.3 µM (inactive) | 1.77 µM (inactive) | 4.24 µM (inactive) | 2.5 µM (inactive) | 4.84 µM (inactive) | 5.22 µM (inactive) | 5.19 µM (inactive) | 2.37 µM (inactive) | 2.32 µM (inactive) | 7.35 µM (inactive) |
| COc1cccc2c1C(=O)c1c(O)c3c(c(O)c1C2=O)C[C@@](O)(C(C)=O)CC3OC1CC(OC2CC(N)C(O)C(C)O2)C(O)C(C)O1 (stereo not given in full) | 52.5 µM (inactive) | 38.7 µM (inactive) | 74.6 µM (inactive) | 29.4 µM (inactive) | 36.8 µM (inactive) | > 48.4 µM (inactive) | 31.4 µM (inactive) | 18.4 µM (inactive) | 57.9 µM (inactive) | 18.2 µM (inactive) | 67.6 µM (inactive) | 35.7 µM (inactive) | 51.9 µM (inactive) | > 24.4 µM (inactive) | 32.7 µM (inactive) | 37.9 µM (inactive) | > 100 µM (inactive) | 23.9 µM (inactive) | 66.1 µM (inactive) | 45.5 µM (inactive) |
| O=Cc1cc2c(o1)C(=O)c1ccccc1C2=O | 1.32 µM (inactive) | 1.98 µM (inactive) | 1.44 µM (inactive) | 0.312 µM (active) | 0.834 µM (active) | 0.251 µM (active) | 1.33 µM (inactive) | 0.267 µM (active) | 1.26 µM (inactive) | 1.82 µM (inactive) | 0.601 µM (active) | 0.233 µM (active) | 2.85 µM (inactive) | 0.459 µM (active) | 0.318 µM (active) | 1.72 µM (inactive) | 2.7 µM (inactive) | 0.851 µM (active) | 1.78 µM (inactive) | 1.42 µM (inactive) |
